Assays:
[1] = Clearance in rat after iv administration; type: ADME, organism-based; conditions: in vivo
[2] = Volume of distribution at steady state in rat after iv administration; type: ADME, organism-based; conditions: in vivo
[3] = Clearance in dog after iv administration; type: ADME, organism-based, Canis lupus familiaris; conditions: in vivo
[4] = Volume of distribution at steady state in dog after iv administration; type: ADME, organism-based, Canis lupus familiaris; conditions: in vivo, read-out: Vdss
[5] = Clearance in monkey after iv administration; type: ADME, organism-based; conditions: macaca, in vivo
[6] = Volume of distribution at steady state in monkey after iv administration; type: ADME, organism-based; conditions: macaca, in vivo, read-out: Vdss
[7] = Clearance in human after iv administration; type: ADME, organism-based; conditions: in vivo
[8] = Volume of distribution at steady state in human after iv administration; type: ADME, organism-based; conditions: in vivo, read-out: Vdss

SMILES | clearance [1] [mL/min/kg] | Vdss [2] [L/kg] | clearance [3] [mL/min/kg] | Vd [4] [L/kg] | clearance [5] [mL/min/kg] | Vd [6] [L/kg] | clearance [7] [mL/min/kg] | Vd [8] [L/kg]
CCCC(CCC)C(=O)O [VALPROIC ACID] | 4.2 | 0.66 | 3 | 0.31 | 4 | 0.15 | 0.11 | 0.15
O=C(O)C[C@H](NC(=O)CP(=O)(O)O)C(=O)O [PALA] | 53 | 4.5 | 7 | 0.6 | 3.7 | 0.35 | 0.8 | 0.35
CC1=NC(=O)C(CCN(C(C)C)C(C)C)(c2ccccc2)C2CCCCN12 (configuration not stated) [ACTISOMIDE] | 9.8 | 1.1 | 9 | 1.1 | 16.4 | 1.6 | 6.8 | 0.58
C#CCCCC(=O)c1cc(C(C)(C)C)c(O)c(C(C)(C)C)c1 [TEBUFELONE] | 42 | 10 | 32 | 81 | 17 | 53 | 9.9 | 30
CN1C(=O)OC(C)(C)C1=O [TRIMETHADIONE] | 5.7 | 0.66 | 2.9 | 0.63 | 1.6 | 0.66 | 0.7 | 0.61
Cc1cccnc1NS(=O)(=O)c1ccc(C#Cc2ccc(O)c(C(=O)O)c2)cc1 [SUSALIMOD] | 62 | 1.2 | 20 | 0.19 | 2 | 0.08 | 0.09 | 0.12
c1ccc(C2(N3CCCCC3)CCCCC2)cc1 [PHENCYCLIDINE] | 122 | 23 | 50 | 17 | 37 | 7.3 | 4.9 | 6.2
CO[C@@]1(NC(=O)CSCC#N)C(=O)N2C(C(=O)O)=C(CSc3nnnn3C)CS[C@@H]21 [CEFMETAZOLE] | 40 | 0.49 | 5.3 | 0.24 | 3.8 | 0.14 | 1.8 | 0.14
CO/N=C(\C(=O)N[C@@H]1C(=O)N2C(C(=O)O)=C(CSc3nc(C)c(CC(=O)O)s3)CS[C@H]12)c1csc(N)n1 [CEFODIZIME] | 1.1 | 0.18 | 4.1 | 0.26 | 1.2 | 0.15 | 0.73 | 0.15
C[C@]12C=CC(=O)C=C1CC[C@@H]1[C@@H]2C(=O)C[C@@]2(C)[C@H]1CC[C@]2(O)C(=O)CO [PREDNISONE] | 163 | 1.4 | 27 | 2.1 | 13 | 1.6 | 3.6 | 
CN1CCC[C@H]1c1cccnc1 [NICOTINE] | 66 | 4.7 | 42 | 3.3 | 14 | 1.5 | 19 | 
CC(C)(C)S(=O)(=O)C[C@@H](Cc1ccccc1)C(=O)N[C@@H](Cc1cnc[nH]1)C(=O)N[C@@H](CC1CCCCC1)[C@@H](O)[C@@H](O)C1CC1 |  | 4.4 | 25 | 1.5 | 20 | 1.7 | 10 | 0.84
CN(Cc1cnc2nc(N)nc(N)c2n1)c1ccc(C(=O)N[C@@H](CCC(=O)O)C(=O)O)cc1 [METHOTREXATE] | 12 | 0.4 | 1.2 |  | 8 | 1.2 | 2.5 | 0.67
COCCc1ccc(OCC(O)CNC(C)C)cc1 (configuration not stated) [METOPROLOL] | 185 | 7 | 23 | 4.5 | 30 | 3 | 15 | 
COC(=O)[C@H]1[C@@H](OC(=O)c2ccccc2)C[C@@H]2CC[C@H]1N2C [COCAINE] | 260 | 16 | 102 | 3.8 | 64 | 7.4 | 32 | 
NC(=O)c1csc([C@@H]2O[C@H](CO)[C@@H](O)[C@H]2O)n1 [TIAZOFURIN] |  | 2.5 |  | 0.9 |  | 2 |  | 0.9
N=C(N)N1CCC[C@@H](CNC(=O)C[C@H](NS(=O)(=O)c2ccc3ccccc3c2)C(=O)N(CC(=O)O)C2CC2)C1 [NAPSAGATRAN ANHYDROUS] |  | 0.62 |  | 0.69 |  | 0.26 |  | 0.32
CC(C)NCC(O)COc1cccc2ccccc12 (configuration not stated) [PROPRANOLOL] |  | 5.3 |  | 1.7 | 14 | 0.6 | 15 | 3.6
Cn1cc(/C=C2/C(=O)N3C(C(=O)O)=CS[C@H]23)nn1 |  | 1.3 |  | 0.32 |  | 0.27 |  | 0.28
O=C(c1ccccc1)c1ccc2n1CCC2C(=O)O (configuration not stated) [KETOROLAC] | 3.6 | 0.56 | 1.3 | 0.33 | 0.6 | 0.09 |  | 
N=C(N)c1ccc(C(=O)N[C@@H](Cc2ccc(O)cc2)C(=O)N2CCC(OCC(=O)O)CC2)cc1 [LAMIFIBAN] |  | 0.24 |  | 0.75 |  | 0.29 |  | 0.29
CC1(C)O[C@@H]2C[C@H]3[C@@H]4C[C@H](F)C5=CC(=O)C=C[C@]5(C)[C@H]4[C@@H](O)C[C@]3(C)[C@]2(C(=O)CO)O1 [FLUNISOLIDE] | 8.8 | 3 | 12.9 | 3.7 | 19 | 4 | 12 | 
COC(=O)C1=C(C)NC(C)=C(C(=O)OCCN(C)Cc2ccccc2)C1c1cccc([N+](=O)[O-])c1 (configuration not stated) [NICARDIPINE] |  | 1.3 |  | 1.3 |  | 1.9 |  | 0.64
CN1C(C(=O)Nc2nccs2)=C(O)c2ccccc2S1(=O)=O [SUDOXICAM] |  | 0.2 |  | 0.2 |  | 0.2 |  | 0.2
CC(C)n1c(/C=C/C(O)CC(O)CC(=O)O)c(-c2ccc(F)cc2)c2ccccc21 (configuration not stated) [FLUVASTATIN] |  | 1 |  | 0.7 |  | 3.7 |  | 0.42
Cc1cn([C@H]2C[C@H](N=[N+]=[N-])[C@@H](CO)O2)c(=O)[nH]c1=O [ZIDOVUDINE] | 46 |  | 14 | 1 | 15 | 1 | 24 | 
CO[C@@]1(NC(=O)CSC(F)F)C(=O)N2C(C(=O)O)=C(CSc3nnnn3CCO)CO[C@@H]21 [FLOMOXEF] |  | 0.23 |  | 0.32 |  | 0.3 |  | 0.52
C[C@@H](O)[C@H]1C(=O)N2C(C(=O)O)=C(SCCOC(N)=O)S[C@H]12 [Sch-34343] |  | 0.17 |  | 0.22 |  | 0.17 |  | 0.34
Cn1c(=O)c2c(ncn2C)n(C)c1=O [CAFFEINE] |  | 0.92 | 2.1 | 0.76 | 3.1 | 0.83 | 2 | 0.73

Reference: ChEMBL document CHEMBL1614629, “Extrapolation of human pharmacokinetic parameters from rat, dog, and monkey data: Molecular properties associated with extrapolative success or failure” (J Pharm Sci, 2005)
